Measured values as given in PubChem BioAssay (NCI).
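Each compound was tested at five concentrations against cells in 96-well plates for 48 hours. At the GI50, growth is halved. TGI is the concentration that stops growth completely.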

What was measured:
Assay in all cases: growth of human tumour cells (NCI), 48 h
K-562 leukemia = test system: K-562 leukemia
HCC-2998 colon = test system: HCC-2998 colon
MDA-MB-435 = test system: MDA-MB-435
HCT-15 colon = test system: HCT-15 colon
HOP-92 NSCLC = test system: HOP-92 NSCLC
M14 melanoma = test system: M14 melanoma
HL-60(TB) leukemia = test system: HL-60(TB) leukemia
NCI/ADR-RES ovarian = test system: NCI/ADR-RES ovarian
NCI-H460 lung = test system: NCI-H460 lung
SW-620 colon = test system: SW-620 colon
786-0 renal = test system: 786-0 renal
RPMI-8226 leukemia = test system: RPMI-8226 leukemia
A549 NSCLC = test system: A549 NSCLC
MCF7 breast = test system: MCF7 breast
BT-549 breast = test system: BT-549 breast
OVCAR-3 ovarian = test system: OVCAR-3 ovarian
HOP-62 NSCLC = test system: HOP-62 NSCLC
SK-MEL-5 melanoma = test system: SK-MEL-5 melanoma
NCI-H226 lung = test system: NCI-H226 lung
SK-MEL-28 melanoma = test system: SK-MEL-28 melanoma
TK-10 renal = test system: TK-10 renal
ACHN renal = test system: ACHN renal
CAKI-1 renal = test system: CAKI-1 renal
UACC-257 melanoma = test system: UACC-257 melanoma
CCRF-CEM leukemia = test system: CCRF-CEM leukemia
SNB-75 CNS = test system: SNB-75 CNS
NCI-H522 lung = test system: NCI-H522 lung
A498 renal = test system: A498 renal
SN12C renal = test system: SN12C renal
COLO 205 colon = test system: COLO 205 colon
DU-145 prostate = test system: DU-145 prostate
SK-MEL-2 melanoma = test system: SK-MEL-2 melanoma
SK-OV-3 ovarian = test system: SK-OV-3 ovarian
MDA-MB-468 breast = test system: MDA-MB-468 breast
HS 578T breast = test system: HS 578T breast
SF-539 CNS = test system: SF-539 CNS
OVCAR-8 ovarian = test system: OVCAR-8 ovarian
OVCAR-5 ovarian = test system: OVCAR-5 ovarian
MOLT-4 leukemia = test system: MOLT-4 leukemia
HT29 colon = test system: HT29 colon
NCI-H23 lung = test system: NCI-H23 lung
MALME-3M melanoma = test system: MALME-3M melanoma
SF-268 CNS = test system: SF-268 CNS
SR leukemia = test system: SR leukemia
U251 CNS = test system: U251 CNS
HCT-116 colon = test system: HCT-116 colon
KM12 colon = test system: KM12 colon
SF-295 CNS = test system: SF-295 CNS
UO-31 renal = test system: UO-31 renal
T-47D breast = test system: T-47D breast
OVCAR-4 ovarian = test system: OVCAR-4 ovarian
RXF 393 renal = test system: RXF 393 renal
IGROV1 ovarian = test system: IGROV1 ovarian
EKVX NSCLC = test system: EKVX NSCLC
LOX IMVI melanoma = test system: LOX IMVI melanoma
UACC-62 melanoma = test system: UACC-62 melanoma
SNB-19 CNS = test system: SNB-19 CNS
MDA-MB-231 breast = test system: MDA-MB-231 breast
PC-3 prostate = test system: PC-3 prostate

Q: What does the source list for `COc1cc(OC)c2c3nc4cc(C)c(C)cc4nc3n(CCN(C)C)c2c1`?
A: GI50 (K-562 leukemia): 3.1 µM; TGI (K-562 leukemia): 25.3 µM; GI50 (HCC-2998 colon): 12.7 µM; TGI (HCC-2998 colon): 26.1 µM; GI50 (MDA-MB-435): 14.5 µM; TGI (MDA-MB-435): 28.2 µM; GI50 (HCT-15 colon): 11.4 µM; TGI (HCT-15 colon): 24.7 µM; GI50 (HOP-92 NSCLC): 11.5 µM; TGI (HOP-92 NSCLC): 31.1 µM; GI50 (M14 melanoma): 13.5 µM; TGI (M14 melanoma): 30.6 µM; GI50 (HL-60(TB) leukemia): 16.3 µM; TGI (HL-60(TB) leukemia): 36.4 µM; GI50 (NCI/ADR-RES ovarian): 10 µM; TGI (NCI/ADR-RES ovarian): 27.7 µM; GI50 (NCI-H460 lung): 12.1 µM; TGI (NCI-H460 lung): 26.5 µM; GI50 (SW-620 colon): 4.65 µM; TGI (SW-620 colon): 18.7 µM; GI50 (786-0 renal): 14.2 µM; TGI (786-0 renal): 29.2 µM; GI50 (RPMI-8226 leukemia): 19.9 µM; TGI (RPMI-8226 leukemia): > 100 µM; GI50 (A549 NSCLC): 4.98 µM; TGI (A549 NSCLC): 22.9 µM; GI50 (MCF7 breast): 4.75 µM; TGI (MCF7 breast): 19.2 µM; GI50 (BT-549 breast): 14.2 µM; TGI (BT-549 breast): 28.5 µM; GI50 (OVCAR-3 ovarian): 16.1 µM; TGI (OVCAR-3 ovarian): 30.6 µM; GI50 (HOP-62 NSCLC): 5.75 µM; TGI (HOP-62 NSCLC): 22.2 µM; GI50 (SK-MEL-5 melanoma): 16.1 µM; TGI (SK-MEL-5 melanoma): 29.8 µM; GI50 (NCI-H226 lung): 14.4 µM; TGI (NCI-H226 lung): 32.3 µM; GI50 (SK-MEL-28 melanoma): 15.6 µM; TGI (SK-MEL-28 melanoma): 29.3 µM; GI50 (TK-10 renal): 16.5 µM; TGI (TK-10 renal): 31.9 µM; GI50 (ACHN renal): 11.1 µM; TGI (ACHN renal): 23.1 µM; GI50 (CAKI-1 renal): 15.9 µM; TGI (CAKI-1 renal): 29.8 µM; GI50 (UACC-257 melanoma): 14.9 µM; TGI (UACC-257 melanoma): 31.9 µM; GI50 (CCRF-CEM leukemia): 22.4 µM; TGI (CCRF-CEM leukemia): > 100 µM; GI50 (SNB-75 CNS): 12.1 µM; TGI (SNB-75 CNS): 25.5 µM; GI50 (NCI-H522 lung): 13.5 µM; TGI (NCI-H522 lung): 33.6 µM; GI50 (A498 renal): > 100 µM; TGI (A498 renal): > 100 µM; GI50 (SN12C renal): 11.5 µM; TGI (SN12C renal): 24.6 µM; GI50 (COLO 205 colon): 5.51 µM; TGI (COLO 205 colon): 20 µM; GI50 (DU-145 prostate): 14.5 µM; TGI (DU-145 prostate): 28.2 µM; GI50 (SK-MEL-2 melanoma): 16.7 µM; TGI (SK-MEL-2 melanoma): 35.4 µM; GI50 (SK-OV-3 ovarian): 16.7 µM; TGI (SK-OV-3 ovarian): 32.1 µM; GI50 (MDA-MB-468 breast): 12.8 µM; TGI (MDA-MB-468 breast): 26.4 µM; GI50 (HS 578T breast): 15.7 µM; TGI (HS 578T breast): 39.5 µM; GI50 (SF-539 CNS): 15 µM; TGI (SF-539 CNS): 28.3 µM; GI50 (OVCAR-8 ovarian): 2.4 µM; TGI (OVCAR-8 ovarian): 6.84 µM; GI50 (OVCAR-5 ovarian): 15.1 µM; TGI (OVCAR-5 ovarian): 29.1 µM; GI50 (MOLT-4 leukemia): 10.6 µM; TGI (MOLT-4 leukemia): 41.7 µM; GI50 (HT29 colon): 4.88 µM; TGI (HT29 colon): 31.4 µM; GI50 (NCI-H23 lung): 13.1 µM; TGI (NCI-H23 lung): 27.8 µM; GI50 (MALME-3M melanoma): 14.1 µM; TGI (MALME-3M melanoma): 28.1 µM; GI50 (SF-268 CNS): 14.4 µM; TGI (SF-268 CNS): 32.1 µM; GI50 (SR leukemia): 4.29 µM; TGI (SR leukemia): 50.7 µM; GI50 (U251 CNS): 12.8 µM; TGI (U251 CNS): 28 µM; GI50 (HCT-116 colon): 13.9 µM; TGI (HCT-116 colon): 30.3 µM; GI50 (KM12 colon): 17.5 µM; TGI (KM12 colon): 34.2 µM; GI50 (SF-295 CNS): 13.1 µM; TGI (SF-295 CNS): 26.2 µM; GI50 (UO-31 renal): 6.21 µM; TGI (UO-31 renal): 20.2 µM; GI50 (T-47D breast): 12.9 µM; TGI (T-47D breast): 32.1 µM; GI50 (OVCAR-4 ovarian): 14.9 µM; TGI (OVCAR-4 ovarian): 33.6 µM; GI50 (RXF 393 renal): 11.8 µM; TGI (RXF 393 renal): 25.1 µM; GI50 (IGROV1 ovarian): 12 µM; TGI (IGROV1 ovarian): 26.1 µM; GI50 (EKVX NSCLC): 14.7 µM; TGI (EKVX NSCLC): 28.3 µM; GI50 (LOX IMVI melanoma): 8.99 µM; TGI (LOX IMVI melanoma): 22.7 µM; GI50 (UACC-62 melanoma): 15.2 µM; TGI (UACC-62 melanoma): 29.1 µM; GI50 (SNB-19 CNS): 12.9 µM; TGI (SNB-19 CNS): 25.7 µM; GI50 (MDA-MB-231 breast): 11.6 µM; TGI (MDA-MB-231 breast): 24.2 µM; GI50 (PC-3 prostate): 15.5 µM; TGI (PC-3 prostate): 61.4 µM
